From article PMC2792609, “Effect of methomyl on hepatic mixed function oxidases in rats” (Indian Journal of Pharmacology, 2008)

Assays:
Assay type in all cases: in vivo, rat
cytochrome P450 = assay: Hepatic microsomal cytochrome P450 level; details: for decrease in cytochrome P450 content: 3 days
Method: (§1) Adult male rats (weighing 200-230 g) were divided into four groups of six animals each. Group 1 received an equivalent amount of saline and served as control. Animals from group 2, 3, and 4 were given methomyl 1, 2, and 4 mg/kg body weight i.p. respectively, between 8: 00 a.m. and 9:00 a.m., for three consecutive days. In the second set of experiments, adult male rats were divided into four groups. Animals from group 2, 3, and 4 were injected with 4 mg/kg body weight methomyl for one, three, and five successive days. The volume injected into the rats of body weight 200 g was 1 ml. In another experiment, adult female rats and old male rats (weighing 350-450 g, 8 months old) were divided into two groups of six animals each. Group 2 of each category received methomyl (4 mg/kg body weight, i.p., for three successive days), and group 1 of each category received an equivalent amount of saline and served as the control group.
(§2) The rats were sacrificed by cervical dislocation, 24 hours after the last dose. Their livers were perfused in situ with ice cold 1.15% KCl containing 0.05 mM EDTA, rapidly excised, blotted dry, weighed, minced and homogenized with two volumes of ice cold 0.25 M sucrose solution, in a Potter-Elvehjem type homogenizer. The homogenate was centrifuged at 10,000 × g for 10 min, in a refrigerated centrifuge (REMI C-24). The microsomes were isolated by the procedure described by of Cinti et al.[4] The microsomal pellet was suspended in phosphate buffer (0.1 M, pH 7.4) and the suspension was used for the microsomal enzyme assays. Microsomal protein content was measured by the Biuret method, using bovine serum albumin as the standard.[5]
(§3) The microsomal electron transport components (cytochrome P450 and cytochrome b5) were determined using Hitachi UV-Visible double beam recording spectrophotometer, by the procedure of Omura and Sato.[67] Cytochrome c reductase activity was determined using the method recommended by Masters et al.[8] Aminopyrine N-demethylase activity was assayed according to the procedure described by Schenkman et al.[9] Formaldehyde liberated during N-demethylation was estimated by the procedure described by Nash.[10] Aniline hydroxylase assay was performed using the procedure reported by Govindwar and Dalvi.[11]

Aniline hydroxylase = assay: Hepatic microsomal aniline hydroxylase activity; details: for decrease in the activity of aniline hydroxylase / decrease in activity of aniline hydroxylase: vs control
Method: as §1, §2, §3

Cytochrome c reductase = assay: Hepatic microsomal cytochrome c reductase activity
Method: as §1, §2, §3

[1] = test system: Aminopyrine N-demethylase; assay: Hepatic microsomal aminopyrine N-demethylase activity; details: for decrease in the activity of aminopyrine N-demethylase: vs control
Method: as §1, §2, §3

[2] = adult female rats, 4 mg/kg body weight, i.p., three days
[3] = adult male rats, 1 mg/kg i.p., for 3 days
[4] = adult male rats, 2 mg/kg i.p., for 3 days
[5] = adult male rats, 4 mg/kg i.p., for 3 days
[6] = adult rats, 4 mg/kg i.p., 1 day of treatment
[7] = adult rats, 4 mg/kg i.p., 3 days of treatment
[8] = adult rats, 4 mg/kg i.p., 5 days of treatment
[9] = old male rat, 4 mg/kg i.p., three days, vs control
[10] = old male rats, 4 mg/kg body weight, i.p., three days
[11] = adult female rat, 4 mg/kg i.p., three days

CNC(=O)ON=C(C)SC [methomyl, S-methyl-N-(methyl carbomyl)-thioacetimidate]
Cytochrome P450 (cytochrome P450; [2]): 0.21 nmole/mg protein
decrease in cytochrome P450 content (cytochrome P450; adult male rats, 1 mg/kg i.p., vs control): 34%
Cytochrome P450 (cytochrome P450; [3]): 0.27 nmole/mg protein
decrease in cytochrome P450 content (cytochrome P450; adult male rats, 2 mg/kg i.p., vs control): 34%
Cytochrome P450 (cytochrome P450; [4]): 0.27 nmole/mg protein
decrease in cytochrome P450 content (cytochrome P450; adult male rats, 4 mg/kg i.p., vs control): 19%
decrease in the level of cytochrome P450 (cytochrome P450; adult male rats, 4 mg/kg i.p., five days, vs control): 37%
Cytochrome P450 (cytochrome P450; [5]): 0.33 nmole/mg protein
decrease in the level of cytochrome P450 (cytochrome P450; adult male rats, 4 mg/kg i.p., one day, vs control): 37%
decrease in the level of cytochrome P450 (cytochrome P450; adult male rats, 4 mg/kg i.p., three days, vs control): 42%
Cytochrome P450 (cytochrome P450; [6]): 0.30 nmole/mg protein
Cytochrome P450 (cytochrome P450; [7]): 0.28 nmole/mg protein
Cytochrome P450 (cytochrome P450; [8]): 0.30 nmole/mg protein
decrease in cytochrome P450 (cytochrome P450; [9]): 43%
Cytochrome P450 (cytochrome P450; [10]): 0.20 nmole/mg protein
decrease in the activity of aniline hydroxylase (Aniline hydroxylase; [11]): 43%
Aniline hydroxylase (Aniline hydroxylase; [2]): 0.45 nmole of p-aminophenol formed/min/mg/microsomal protein
Aniline hydroxylase (Aniline hydroxylase; [3]): 1.35 nmole of p-aminophenol formed/min/mg microsomalprotein
Aniline hydroxylase (Aniline hydroxylase; [4]): 1.17 nmole of p-aminophenol formed/min/mg microsomalprotein
decrease in the activity of aniline hydroxylase (Aniline hydroxylase; adult male rats, 4 mg/kg i.p., 3 days): 27%
decrease in activity of aniline hydroxylase (Aniline hydroxylase; adult male rats, 4 mg/kg i.p., five days): 17%
Aniline hydroxylase (Aniline hydroxylase; [5]): 0.80 nmole of p-aminophenol formed/min/mg microsomalprotein
decrease in activity of aniline hydroxylase (Aniline hydroxylase; adult male rats, 4 mg/kg i.p., one day): 47%
decrease in activity of aniline hydroxylase (Aniline hydroxylase; adult male rats, 4 mg/kg i.p., three days): 71%
Aniline hydroxylase (Aniline hydroxylase; [6]): 0.60 nmole of p-aminophenol formed/min/mg/microsomal protein
Aniline hydroxylase (Aniline hydroxylase; [7]): 0.33 nmole of p-aminophenol formed/min/mg/microsomal protein
Aniline hydroxylase (Aniline hydroxylase; [8]): 0.93 nmole of p-aminophenol formed/min/mg/microsomal protein
Aniline hydroxylase (Aniline hydroxylase; [10]): 1.80 nmole of p-aminophenol formed/min/mg/microsomal protein
decrease in the activity of cytochrome c reductase (Cytochrome c reductase; adult female rat, 4 mg/kg i.p., three days, vs control): 42%
Cytochrome c reductase (Cytochrome c reductase; [2]): 23.07 nmole of cytochrome c reduced/min/mg microsomal protein
Cytochrome c reductase (Cytochrome c reductase; [3]): 35.73 nmole of cytochrome c reduced/min/mg microsomal protein
Cytochrome c reductase (Cytochrome c reductase; [4]): 32.80 nmole of cytochrome c reduced/min/mg microsomal protein
increase in cytochrome c reductase activity (Cytochrome c reductase; adult male rats, 4 mg/kg i.p., 3 days, vs control): 14%
Cytochrome c reductase (Cytochrome c reductase; [5]): 36.93 nmole of cytochrome c reduced/min/mg microsomal protein
change in the activity of cytochrome c reductase (Cytochrome c reductase; adult male rats, 4 mg/kg i.p., one, three and five days): No significant change
Cytochrome c reductase (Cytochrome c reductase; [6]): 31.3 nmole of cytochrome c reduced/min/mg microsomal protein
Cytochrome c reductase (Cytochrome c reductase; [7]): 26.7 nmole of cytochrome c reduced/min/mg microsomal protein
Cytochrome c reductase (Cytochrome c reductase; [8]): 24.2 nmole of cytochrome c reduced/min/mg microsomal protein
decrease in cytochrome c reductase (Cytochrome c reductase; [9]): 7%
Cytochrome c reductase (Cytochrome c reductase; [10]): 33.30 nmole of cytochrome c reduced/min/mg microsomal protein
decrease in the activity of aminopyrine N-demethylase [1, 11]: 26%
Aminopyrine N-demethylase [1, 2]: 3.30 nmole of formaldehyde liberated/min/mg microsomal protein
Aminopyrine N-demethylase [1, 3]: 3.2 nmole of formaldehyde liberated/min/mg microsomal protein
decrease in the activity of aminopyrine N-demethylase ([1]; adult male rats, 2 mg/kg i.p., 3 days): 50%
Aminopyrine N-demethylase [1, 4]: 1.9 nmole of formaldehyde liberated/min/mg microsomal protein
